# Measured values as given in patent publication EP0840781B1, “METHODS AND DEVICES FOR THE REMOVAL OF PSORALENS FROM BLOOD PRODUCTS” (Cerus Corporation, priority 1995, dated 1996).
# Experiment: HPLC analysis of residual S-59 and photoproducts in PC after UVA and 8-hour treatment with RD containing Dowex XUS-43493
# Format: physicochemical
# Protocol: Briefly, the assay involved an initial sample preparation which lyses the platelets and solubilizes the S-59 and photoproducts. The supernatant from the sample preparation was then analyzed on a C-18 reverse phase column with a gradient of increasing methanol in KH2PO4 buffer. The major peaks were detected by optical absorbance. […] Samples of the treated PC were then taken and subjected to HPLC for detection of residual S-59 and S-59 photoproducts. Post-incubation levels of photoproducts D, E, and F (S-59) are presented in Table N; photoproducts A, B, C, and G were not detectable by HPLC. Levels of residual photoproducts are average values taken from six independent, photochemically- and RD-treated platelet units. […] The PC was assayed for unbound photoproducts using the HPLC assay discussed above, which quantifies the photoproducts present both within the platelets and in the plasma/PAS III mixture. […] In addition to assaying the complete PC, samples were centrifuged to remove the platelets so that unbound photoproducts in the plasma/PAS III could be analyzed separately. […] To evaluate the efficacy of the RD for reducing the concentration of S-59. platelet samples from the test unit were analyzed for S-59 content by HPLC. […] The concentration of S-59 before and after UVA illumination and the reduction in the concentration of residual S-59 following RD treatment were measured by HPLC analysis. […]
smiles,measurement,setting,value
"Cc1oc2c(C)c3oc(=O)cc(C)c3cc2c1COCCN [Compound 2, 4'-(4-amino-2-oxa)butyl-4,5',8-trimethylpsoralen]",% Residual S- 59,"Post 3 Joule/cm^2 UVA Illumination, of the initial S-59 remained unreacted",20.5 ± 2.3%
same,µM S-59,"Pre-Treatment (0 Joule/cm^2), platelet concentrate, HPLC",145 ± 10 µM
